These results are taken from patent EP4782434A1, “N-SULFONYL CARBOXAMIDE COMPOUND, AND PREPARATION METHOD THEREFOR AND USE THEREOF” (Nutshell Therapeutics (Shanghai) Co., Ltd., priority 2023, dated 2025).

This data set is described as follows: Pharmacokinetic study in rats. The format is in vivo. Particulars: rat, plasma; male Wistar-Han rats, dose 30 mg/kg; route not stated in the table (oral gavage vehicle given). The protocol: • 1. Experimental objective: To test the pharmacokinetics of the compounds in in vivo experiments using Wistar-Han rats. • 2. Experimental instruments and materials:
Animal: Wistar-Han rats (male)
Oral gavage: 1% methylcellulose aqueous solution.
Six male rats were used. On the evening prior to administration, the animals were fasted, with free access to water. During the experimental period, […] had free access to food and water. The animals were administered either by intravenous injection or intragastric gavage, after which the status of the animals was observed and any abnormal manifestations were recorded. Blood was collected via jugular vein puncture at 0.0833, 0.25, 1, 2, 4, 8, and 24 hours following intravenous administration; and at 0.25, 0.5, 1, 2, 4, 6, 8, and 24 hours following intragastric gavage. […]
A standard curve was established using the internal standard method, with the theoretical concentrations of the standard curve as the abscissa and the peak area ratio (peak area of test compound / peak area of internal standard) as the ordinate. […] Unknown samples were calculated via the standard curve. Pharmacokinetic parameters were calculated using the non-compartmental analysis (NCA) model of WinNonlin 8.2 software and presented in the report. […]

Consider `[2H]C([2H])([2H])O[C@@H](C)c1ccc(CS(=O)(=O)NC(=O)c2ccc(C([2H])([2H])[2H])cc2-c2cc(Cl)ncc2OC)cc1` [cpd-17, (S)-2-(2-Chloro-5-methoxypyridin-4-yl)-N-((4-(1-(methoxy-d3)ethyl)benzyl)sulfonyl)-4-(methyl-d3)benzamide], for which the exposure AUC(0-t) (in general, the area under the concentration-time curve up to a stated or last time point) worked out at 11700 ng·h/mL and the maximum concentration (Cmax) (as a rule, the peak of the concentration-time curve) was determined as 8300 ng/mL.
